Test results published in US6699989B1, “Antiviral and antimicrobial guanidine or biguanidine derivatives” (priority 2000, dated 2004).
Values after ≈ are worked out from the molar mass of the structure shown. Read-outs that look alike come from different tables or passages of the source.

Test system: HIV-1
Assay: PBMC assay, virus production by reverse transcriptase activity
Assay type: cell-based
Description: Method 2: PBMC Assay Method (Peripheral Blood Mononuclear cell)—Description
This assay addresses the issue of providing a rationale for further evaluation of the compound by providing evidence of in vitro anti-HIV activity against a low passage clinical strain of HIV-1. These fresh human peripheral blood mononuclear cell assays use fresh human cells obtained from the American Red Cross from uninfected, normal human donors. Mononuclear cells from these blood samples are isolated by centrifugation and infected with low passage clinical strains of HIV-1 which have been obtained by culture of blood cells from HIV-infected patients with uninfected PBMCs. Since the PBMCs are not killed by HIV infection, endpoint quantification is performed by measurement of virus production in each well by reverse transcriptase assay or p24 ELISA. These assays provide evidence that the test compounds will have efficacy against viruses, which will likely be encountered in patients without genetic changes, introduced by passage in cell culture.
Thus, PBMCs assay measures the amount of virus released from the infected cells into the tissue culture supernatant. The activity of the test compound is measured by its ability to reduce the level of virus production relative to the virus controls (cells+virus with no added compound). In PBMC culture we use reverse transcriptase activity in the supernatant to quantify the amount of virus production from the infected cells. Endpoint quantification is performed at 6 days post-infection.
Fresh human peripheral blood lymphocytes (PBL) are isolated from voluntary Red Cross donors, seronegative for HIV and HBV. Leukophoresed blood is diluted 1:1 with Dulbecco's phosphate buffered saline (PBS), layered over 14 mL of Ficoll-Hypaque density gradient in a 50 mL centrifuge tube. Tubes are then centrifuged for 30 minutes at 600×g. Banded PBLs are gently aspirated from the resulting interface and subsequently washed 2× with PBS by low speed centrifugation. […] After incubation, PBLs are centrifuged and reset in RPMI 1640 with 15% FBS, 2 mM L-glutamine, 100 U/mL. penicillin, 100 ug/mL streptomycin, 10 ug/mL gentamycin, and 20 U/mL recombinant human IL-2. PBLs are maintained in this medium at a concentration of 1-2×10E6/mL with bi-weekly medium changes, until use in assay protocol. For the PBL assay, PHA-P stimulated cells from at least two normal donors are pooled, set in fresh medium at 2×10E6/mL and plated in the interior wells of a 96 well round bottom microplate at 50 μL/well. Test drug dilutions are prepared at a 2× concentration in microtiter tubes and 100 μL of each concentration is placed in appropriate wells in a standard format. 50 μL of a predetermined dilution of virus stock is placed in each test well. Wells with cells and virus alone are used for virus control. Separate plates are identically set without virus for drug cytotoxicity studies using an XTT assay system.
In the standard PBL assay (MOI: 0.2), the assay was ended on day 7 following collection of cell free supernatant samples for reverse transcriptase activity assay. In the low MOI PBL assay (MOI: 0.02), supernatant samples were collected on day 6, day 11, and day 14 post-infection and analyzed for RT activity.

N=C(NCCCCCCNC(=N)NC(=N)N1CCN(c2cc3c(cc2F)c(=O)c(C(=O)O)cn3C2CC2)CC1)NC(=N)N1CCN(c2cc3c(cc2F)c(=O)c(C(=O)O)cn3C2CC2)CC1 [BVS-10A]
RT ACTIVITY MEAN (0.01 μg/ml, ROJO in PBMC): 6532.7 cpm | RT ACTIVITY MEAN (0.032 μg/ml, ROJO in PBMC): 7531.7 cpm | RT ACTIVITY MEAN (0.1 μg/ml, ROJO in PBMC): 5919.0 cpm | RT ACTIVITY MEAN (0.32 μg/ml, ROJO in PBMC): 5899.7 cpm | RT ACTIVITY MEAN (1 μg/ml, ROJO in PBMC): 6546.7 cpm | RT ACTIVITY MEAN (3.2 μg/ml, ROJO in PBMC): 2327.0 cpm | RT ACTIVITY MEAN (10 μg/ml, ROJO in PBMC): 274.0 cpm | RT ACTIVITY MEAN (32 μg/ml, ROJO in PBMC): 68.0 cpm | RT ACTIVITY MEAN (100 μg/ml, ROJO in PBMC): 49.3 cpm | IC50 (Human immunodeficiency virus 1, PBMC, PBMCs, read-out: 50% inhibition of virus replication): 2.5 µg/mL (≈ 2.74 µM) | activity at 0.01 µg/mL (Human immunodeficiency virus 1, 0.01 μg/ml, ROJO in PBMC, read-out: RT ACTIVITY % VC): 90.8% | activity at 0.032 µg/mL (Human immunodeficiency virus 1, 0.032 μg/ml, ROJO in PBMC, read-out: RT ACTIVITY % VC): 105% | activity at 0.1 µg/mL (Human immunodeficiency virus 1, 0.1 μg/ml, ROJO in PBMC, read-out: RT ACTIVITY % VC): 82.2% | activity at 0.32 µg/mL (Human immunodeficiency virus 1, 0.32 μg/ml, ROJO in PBMC, read-out: RT ACTIVITY % VC): 82% | activity at 1 µg/mL (Human immunodeficiency virus 1, 1 μg/ml, ROJO in PBMC, read-out: RT ACTIVITY % VC): 91% | activity at 3.2 µg/mL (Human immunodeficiency virus 1, 3.2 μg/ml, ROJO in PBMC, read-out: RT ACTIVITY % VC): 32.3% | activity at 10 µg/mL (Human immunodeficiency virus 1, 10 μg/ml, ROJO in PBMC, read-out: RT ACTIVITY % VC): 3.8% | activity at 32 µg/mL (Human immunodeficiency virus 1, 32 μg/ml, ROJO in PBMC, read-out: RT ACTIVITY % VC): 0.9% | activity at 100 µg/mL (Human immunodeficiency virus 1, 100 μg/ml, ROJO in PBMC, read-out: RT ACTIVITY % VC): 0.7% | IC50 (Human immunodeficiency virus 1, ROJO in PBMC, RT activity, read-out: IC50): 2.54 µg/mL (≈ 2.78 µM) | concentrations at which active in PBMCs (PBMCs): greater than 3.2 μg/mL
